Assay results: patent US20220356174A1, “PYRIDIN-2-ONE COMPOUNDS USEFUL AS SMARCA2 ANTAGONISTS” (Epizyme, Inc., priority 2018, published 2022)
Like-named read-outs stand apart in the source and are kept apart here.

Assays:
FL-SMARCA4 = FL-SMARCA4 (Homo sapiens, UniProt P51532); test: SMARCA4 ATPase activity assay (ADP-Glo, chicken mononucleosome substrate)
[1] = molecular target: T1, FL-SMARCA2 (full-length human SMARCA2 isoform 1) (Homo sapiens, UniProt P51531); test: SMARCA2 ATPase activity assay (ADP-Glo, chicken mononucleosome substrate); format: biochemical; settings: ATPase assay, enzyme 5 nM, ATP 250 uM, chicken mononucleosome 10 nM, 30 min preincubation
T1 construct: FLAG tag (YKDDDDK) (C); made in house; host or cells: Sf21 insect cells (baculovirus, pFastBacI)
T1 sequence (P51531 with tags, fused parts or gaps): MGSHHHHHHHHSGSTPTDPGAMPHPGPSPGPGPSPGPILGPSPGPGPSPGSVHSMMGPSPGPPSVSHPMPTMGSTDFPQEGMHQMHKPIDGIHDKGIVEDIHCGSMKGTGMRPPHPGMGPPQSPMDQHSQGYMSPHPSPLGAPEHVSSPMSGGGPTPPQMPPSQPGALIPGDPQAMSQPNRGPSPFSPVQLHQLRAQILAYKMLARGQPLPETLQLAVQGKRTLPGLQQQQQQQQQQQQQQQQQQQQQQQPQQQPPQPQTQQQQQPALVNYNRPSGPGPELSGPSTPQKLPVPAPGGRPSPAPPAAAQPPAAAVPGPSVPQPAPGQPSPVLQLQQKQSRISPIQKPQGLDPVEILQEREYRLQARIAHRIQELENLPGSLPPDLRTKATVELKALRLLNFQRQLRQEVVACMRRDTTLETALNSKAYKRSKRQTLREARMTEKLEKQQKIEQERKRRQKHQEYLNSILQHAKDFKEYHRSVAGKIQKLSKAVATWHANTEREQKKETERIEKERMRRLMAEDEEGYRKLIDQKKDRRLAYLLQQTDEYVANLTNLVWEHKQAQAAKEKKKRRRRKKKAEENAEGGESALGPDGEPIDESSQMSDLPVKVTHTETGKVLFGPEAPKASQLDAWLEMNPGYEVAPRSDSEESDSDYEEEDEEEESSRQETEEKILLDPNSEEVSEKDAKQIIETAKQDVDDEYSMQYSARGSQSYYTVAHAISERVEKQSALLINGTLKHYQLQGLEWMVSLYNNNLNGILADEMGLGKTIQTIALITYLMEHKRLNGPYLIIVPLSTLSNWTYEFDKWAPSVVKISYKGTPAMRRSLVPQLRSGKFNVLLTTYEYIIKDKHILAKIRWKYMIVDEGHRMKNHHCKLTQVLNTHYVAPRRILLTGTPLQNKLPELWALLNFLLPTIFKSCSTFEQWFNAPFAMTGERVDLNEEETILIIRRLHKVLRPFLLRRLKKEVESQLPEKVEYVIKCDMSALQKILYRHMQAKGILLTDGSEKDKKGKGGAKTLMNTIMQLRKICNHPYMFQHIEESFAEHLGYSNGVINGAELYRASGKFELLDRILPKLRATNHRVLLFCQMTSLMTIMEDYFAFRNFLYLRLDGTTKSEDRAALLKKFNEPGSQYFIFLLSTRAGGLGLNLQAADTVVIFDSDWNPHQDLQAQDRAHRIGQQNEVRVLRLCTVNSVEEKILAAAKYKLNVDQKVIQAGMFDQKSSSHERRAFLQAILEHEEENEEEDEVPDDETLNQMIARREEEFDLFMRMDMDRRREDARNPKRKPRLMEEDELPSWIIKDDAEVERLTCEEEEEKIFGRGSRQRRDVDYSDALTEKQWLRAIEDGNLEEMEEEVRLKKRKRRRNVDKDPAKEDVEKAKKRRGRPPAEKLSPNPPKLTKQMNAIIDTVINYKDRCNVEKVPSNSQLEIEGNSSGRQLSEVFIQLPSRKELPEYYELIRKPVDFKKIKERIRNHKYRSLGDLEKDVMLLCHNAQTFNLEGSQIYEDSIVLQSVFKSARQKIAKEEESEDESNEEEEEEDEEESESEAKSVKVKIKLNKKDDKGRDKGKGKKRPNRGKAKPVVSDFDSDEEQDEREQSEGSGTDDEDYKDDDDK

H358 cells = test: High-throughput proliferation (HTP) assay for H358 cells (CellTiter-Glo, 7 days); format: cell-based; settings: Homo sapiens, NCI-H358, 168 h, read-out: H358 SMARCA2 IC50
In short: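 Cells were plated at 1,000 cells/well in RPMI 1640 + 10% HI-FBS + 1% pen/strep on pre-dispensed compound and incubated 7 days at 37 °C, 5% CO2. Viability was read as ATP luminescence with CellTiter-Glo after 30 min at RT. DMSO served as 0% and 10 µM doxorubicin as 100% inhibition for EC50/IC50.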

A549 cells = test: High-throughput proliferation (HTP) assay for A549 cells (CellTiter-Glo, 7 days); format: cell-based; settings: Homo sapiens, 168 h, read-out: A549 SMARCA2 IC50
In short: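 Seven-day growth of A549 (62.5 cells/well, F12K with 10% HI-FBS, 37° C.) with compound, read by CellTiter-Glo ATP luminescence. Percent inhibition scaled between DMSO wells and 10 μM Doxorubicin wells, then fitted for EC50 and IC50.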

[2] = Table 3d.1, read-out: FL-SMARCA2 IC>50
[3] = FL-SMARCA4 IC>50, Table 3c.2, ATPase assay, enzyme 5 nM, ATP 250 uM, chicken mononucleosome 10 nM, 30 min preincubation

FL-SMARCA4, sequence (P51532 whole entry, canonical isoform): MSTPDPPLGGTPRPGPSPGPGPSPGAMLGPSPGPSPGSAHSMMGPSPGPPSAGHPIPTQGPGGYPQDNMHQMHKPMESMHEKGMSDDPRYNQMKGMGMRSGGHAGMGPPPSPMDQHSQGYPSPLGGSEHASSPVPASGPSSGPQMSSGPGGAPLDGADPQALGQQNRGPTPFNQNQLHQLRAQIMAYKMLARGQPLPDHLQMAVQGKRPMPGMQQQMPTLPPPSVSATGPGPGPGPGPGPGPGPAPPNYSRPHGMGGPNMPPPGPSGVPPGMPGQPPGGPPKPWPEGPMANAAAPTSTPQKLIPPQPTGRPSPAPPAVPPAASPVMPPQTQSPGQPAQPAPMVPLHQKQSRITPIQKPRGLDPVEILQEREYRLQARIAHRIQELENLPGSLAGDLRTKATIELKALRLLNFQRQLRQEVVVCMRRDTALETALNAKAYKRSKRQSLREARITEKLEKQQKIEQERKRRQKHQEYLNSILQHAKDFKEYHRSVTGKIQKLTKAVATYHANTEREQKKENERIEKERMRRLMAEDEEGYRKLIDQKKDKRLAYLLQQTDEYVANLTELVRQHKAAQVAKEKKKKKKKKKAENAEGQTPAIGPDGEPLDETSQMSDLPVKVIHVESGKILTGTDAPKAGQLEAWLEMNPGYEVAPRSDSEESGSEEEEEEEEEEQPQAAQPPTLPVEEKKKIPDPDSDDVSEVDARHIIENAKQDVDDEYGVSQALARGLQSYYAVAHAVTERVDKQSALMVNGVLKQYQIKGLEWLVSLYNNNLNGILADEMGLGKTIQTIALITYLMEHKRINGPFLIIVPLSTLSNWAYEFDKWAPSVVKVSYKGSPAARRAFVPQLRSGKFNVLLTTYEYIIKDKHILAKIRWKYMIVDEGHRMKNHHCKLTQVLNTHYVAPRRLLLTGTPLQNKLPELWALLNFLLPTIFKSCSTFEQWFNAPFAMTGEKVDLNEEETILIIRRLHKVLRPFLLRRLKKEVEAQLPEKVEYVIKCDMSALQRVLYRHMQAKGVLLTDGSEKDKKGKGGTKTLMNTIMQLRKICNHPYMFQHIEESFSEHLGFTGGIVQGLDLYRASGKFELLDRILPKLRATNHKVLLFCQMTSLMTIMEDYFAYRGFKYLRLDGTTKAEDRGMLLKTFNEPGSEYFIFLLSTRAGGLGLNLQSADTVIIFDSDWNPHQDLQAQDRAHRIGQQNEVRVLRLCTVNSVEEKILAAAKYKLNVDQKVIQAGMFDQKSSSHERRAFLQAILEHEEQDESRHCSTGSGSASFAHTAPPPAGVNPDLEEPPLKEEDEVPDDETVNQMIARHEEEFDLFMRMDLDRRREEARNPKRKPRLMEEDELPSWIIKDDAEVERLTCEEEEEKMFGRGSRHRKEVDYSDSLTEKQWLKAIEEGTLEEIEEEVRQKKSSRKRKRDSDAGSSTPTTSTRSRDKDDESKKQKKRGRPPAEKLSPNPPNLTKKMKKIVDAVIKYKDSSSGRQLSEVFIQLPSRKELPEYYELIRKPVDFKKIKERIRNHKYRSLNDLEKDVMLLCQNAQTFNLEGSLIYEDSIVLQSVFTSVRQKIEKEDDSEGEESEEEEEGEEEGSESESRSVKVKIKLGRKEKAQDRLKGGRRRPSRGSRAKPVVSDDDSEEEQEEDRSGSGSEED

Row | Compound | IC50 (FL-SMARCA4; FL-SMARCA4 IC50) [nM] | IC50 [1, 2] [nM] | IC50 (H358 cells) [nM] | IC50 (A549 cells) [nM] | IC50 (FL-SMARCA4; [3]) [nM] | IC50 ([1]; Table 3c.1) [nM]
1 | O=C(Nc1cc(F)c(=O)n(CC(F)F)c1)c1cc(-c2ccco2)on1 [Compound 124d] | > 50000 | > 50000 | > 10000 | > 10000 |  | 
2 | NCc1nc(C#Cc2cc(C(=O)Nc3cc(F)c(=O)n(CC(F)F)c3)sc2Cl)cs1 [Compound 125c] |  |  | > 10000 | 4460 | 166 | 52.2
3 | O=C(Nc1cc(F)c(=O)n(CC(F)F)c1)c1cc(C#Cc2csc(C(F)(F)F)n2)c(Cl)s1 [Compound 126c] |  |  | > 10000 | 4010 | 957 | 235
4 | O=C(Nc1cc(F)c(=O)n(CC(F)F)c1)c1cc(C#CCn2cnnc2)c(Cl)s1 [Compound 126d] | 4370 | 1580 | > 10000 | > 10000 |  | 
5 | O=C(Nc1cc(F)c(=O)n(CC(F)F)c1)c1cc(C#CCn2cncn2)c(Cl)s1 [Compound 127d] | 1450 | 586 | > 10000 | > 10000 |  | 
6 | CN(C)Cc1cccc(C#Cc2cc(C(=O)Nc3cc(F)c(=O)n(CC(F)F)c3)sc2Cl)c1 [Compound 128c] |  |  | 3890 | 5130 | 823 | 211
7 | Cn1cc(C#Cc2cc(C(=O)Nc3cc([N+](=O)[O-])c(=O)n(CC(F)F)c3)sc2C(F)(F)F)cn1 [Compound 128d] | > 50000 | > 50000 | 4050 | 3240 |  | 
8 | CNC(=O)c1cncc(C#Cc2cc(C(=O)Nc3cc(F)c(=O)n(CC(F)F)c3)sc2Cl)c1 [Compound 129c] |  |  | > 10000 | > 10000 | 143 | 51.3
9 | O=C(Nc1cc(F)c(=O)n(CC(F)F)c1)c1cc(C#C[C@H]2CCC[C@H](O)C2)c(Cl)s1 [Compound 129d] | 161 | 58.4 | > 10000 | 2170 |  | 
10 | CNC(=O)c1cc(C#Cc2cc(C(=O)Nc3cc(F)c(=O)n(CC(F)F)c3)sc2Cl)ccn1 [Compound 130c] |  |  | > 10000 | 1210 | 44 | 16.6
11 | O=C(Nc1cc(F)c(=O)n(CC(F)F)c1)c1cc(C#Cc2nncs2)c(Cl)s1 [Compound 130d] | 132 | 30.9 | 6750 | 3370 |  | 
12 | O=C(O)c1cccc(C#Cc2cc(C(=O)Nc3cc(F)c(=O)n(CC(F)F)c3)sc2Cl)c1 [Compound 131c] |  |  | > 10000 | > 10000 | 13.7 | 8.68
13 | CC(N)C#Cc1sc(C(=O)Nc2cc(F)c(=O)n(CC(F)F)c2)cc1Cl (stereo not shown) [Compound 131d] | > 50000 | > 50000 | > 10000 | > 10000 |  | 
14 | CN1CCCC(C#Cc2sc(C(=O)Nc3cc(F)c(=O)n(CC(F)F)c3)cc2Cl)C1 (stereo not shown) [Compound 132d] | > 50000 | > 50000 | > 10000 | 7980 |  | 
15 | O=C(Nc1cc(F)c(=O)n(CC(F)F)c1)c1cc(C#C[C@H]2C[C@H](CO)C2)c(Cl)s1 [Compound 133d] | 165 | 46.1 | > 10000 | 2890 |  | 
16 | N#Cc1sc(C(=O)Nc2cc(F)c(=O)n(CC(F)F)c2)cc1C#Cc1ccncc1 [Compound 134c] |  |  | 3890 | 909 | 12.8 | 8.12
17 | O=C(Nc1cc(F)c(=O)n(CC(F)F)c1)c1cc(C#C[C@H]2C[C@@H](CO)C2)c(Cl)s1 [Compound 134d] | 58.7 | 18.8 | > 10000 | 1330 |  | 
18 | O=C(Nc1cc(F)c(=O)n(CC(F)F)c1)c1cc(C#CC23CC(CO)(C2)C3)c(Cl)s1 [Compound 135d] | 334 | 160 | > 10000 | 2380 |  | 
19 | O=C(Nc1cc(F)c(=O)n(CC(F)F)c1)c1cc(C#Cc2cocn2)c(Cl)s1 [Compound 136c] |  |  | > 10000 | 734 | 117 | 26.3
20 | C[C@]1(C#Cc2cc(C(=O)Nc3cc(F)c(=O)n(CC(F)F)c3)sc2Cl)C[C@@H](O)C1 [Compound 136d] | 85.2 | 41.9 | > 10000 | 2220 |  | 
21 | N#Cc1cc(C(=O)Nc2cc(C(N)=O)c(=O)n(CC(F)F)c2)sc1C(F)(F)F [Compound 137d] | > 50000 | > 50000 | > 10000 | > 10000 |  | 
22 | CC(N)C#Cc1cc(C(=O)Nc2cc(F)c(=O)n(CC(F)F)c2)sc1Cl (stereo not shown) [Compound 138d] | 4610 | 1680 | > 10000 | > 10000 |  | 
